The source of these data is PMC5641092 (Oncotarget, 2017).

Data set [1] deals with T1, bovine serum albumin (BSA) (Bos taurus, UniProt P02769).
T1 construct: purchased Sigma-Aldrich, Deisenhofen, Germany
Kind of data set: Peptide stability in presence of BSA (SDS-PAGE). Type of data set: in vitro ADME. The note with it: BSA 1:1 weight ratio, 37°C, 1, 6 and 7 days. As for the experimental part:
(§1) Peptide stability was tested in presence of bovine serum albumin (BSA, Sigma-Aldrich, Deisenhofen, Germany), fetal bovine serum (FBS, Gibco®), buffer pH 2 (30 mM citric acid/HCl, 60 mM NaCl), pH 10 (10 mM Tris/NaOH), and pepsin from porcine gastric mucosa (Sigma-Aldrich, Deisenhofen, Germany) in buffer pH 2. Therefore peptide samples were incubated in presence of 1:1 weight ratios (10:1 in presence of pepsin) with the mentioned components or in presence of buffer (pH 2 or 10) for 1 day, 6 days and 7 days at 37°C. After the given time points aliquots were taken and diluted with electrophoresis loading buffer (2.5% SDS) heated for 5 minutes at 95°C and analyzed by SDS-gel electrophoreses (BioRad, Mini-PROTEAN Tetra System). As standard the Ultra-low Range Molecular Weight Marker M3546 (Sigma-Aldrich, Deisenhofen, Germany) was used. For analysis of binding to BSA after 7 days respective samples were taken and loaded on Amicon Ultra-0.5 ml Centrifugal Filters (Ultracel-10K) (Merck Millipore, Tullagreen, IRL). After centrifugation (14.000g, 30 minutes, 4°C) the filtrate was analyzed for amount of non-BSA-bound peptide by measurement of UV-absorbance of tryptophan at 280 nm. The filtrate (free) peptide amount was corrected with the peptide loss during the filtration process by a control experiment with defined peptide amount.

Data set [2] relates to human melanoma A375 xenografts. Kind of data set: Mouse xenografts of human melanoma A375, intratumoral peptide treatment. Type of data set: in vivo, FOXN1 mice. The note with it: day 1 and day 3, after first and second dose of 0.33 mg. As for the experimental part: 20 FOXN1 mice (Charles River Laboratories, Sulzfeld, Germany) were xenotransplanted with melanoma cells A375 subcutaneously in the right flank. The tumor was grown to a maximum length and width of 3 mm before peptide treatment was started (day 0). 9 mice were treated with peptide dissolved in buffer PBS (P), 5 mice were treated with pure buffer (C+), 5 mice were untreated (C-). Treatment occurred at days 0, 1, 6, 7, 8, 11 and 12 in 7 single doses by injection into the tumor. The total dose per mouse was 1.67 mg. The single doses applied at day 0 and 1 contained 0.33 mg peptide and the residual doses contained 0.20 mg. The tumor sizes were measured with manual calipers during the treatment time span. […]
The tumor sections of peptide treated and untreated mice were evaluated for the following: tumor cell types (spindle, epithelioid, or mixed), tumor size, present/ absent necrosis or fibrosis. […] We performed Ki67 staining (Ki-67 rabbit primary antibody, 30-9; ready to use with Ventana iView DAB detection kit; Pretreatment: CC1mild; All Ventana Medical Systems, Inc, Tucson, Arizona).
All values were presented as the mean ± SEM. In vivo data were analyzed by using the unpaired student's t test, p-values less than 0.001 were considered statistically significant.

Data set [3] in a line: Complete blood count of xenografted mice. Format: in vivo, FOXN1 mice. The note with it: 7 mice. The method, then:
20 FOXN1 mice (Charles River Laboratories, Sulzfeld, Germany) were xenotransplanted with melanoma cells A375 subcutaneously in the right flank. The tumor was grown to a maximum length and width of 3 mm before peptide treatment was started (day 0). […] Treatment occurred at days 0, 1, 6, 7, 8, 11 and 12 in 7 single doses by injection into the tumor. The total dose per mouse was 1.67 mg. The single doses applied at day 0 and 1 contained 0.33 mg peptide and the residual doses contained 0.20 mg. The tumor sizes were measured with manual calipers during the treatment time span. At day 15 the mice were sacrificed and the tumors were isolated and examined together with the organs of the mice after paraffin embedment and staining of four-micron sections with hematoxylin and eosin. All animal work was done in accordance with the protocol approved by the institutional animal care and use committee at the Austrian Federal Ministry for Science and Research (BMWF) (vote 66.010/0160-II/3b/2012).

Data set [4] is described as follows: Peptide stability in presence of fetal bovine serum (SDS-PAGE). The following applies: FBS 1:1 weight ratio, 37°C. Type of data set: in vitro ADME. The method, then:
as §1, with “Therefore peptide samples were incubated in presence of 1:1 weight ratios (10:1 in presence of pepsin) with the mentioned components or in presence of buffer (pH 2 or 10) for 1 day, 6 days and 7 days at 37°C.” left out

The target of data set [5] is T1, bovine serum albumin (BSA). Briefly: Binding to BSA (centrifugal filtration, UV 280 nm). The note with it: after 7 days of incubation at 37°C, Amicon Ultracel-10K filtration, corrected for filtration loss. The method, then: as §1
The nature of data set [6]: Side effects after subcutaneous injection of peptide into the flank. Type of data set: in vivo, mice. The method, then: To test further potential side effects of the peptide in vivo, 3 mice were injected subcutaneously into the flank with 9 doses of peptide to a total amount of 0.68 mg per mouse over 3 weeks. Then the skin at injection site, liver, kidney, spleen, and weight were checked for abnormal changes (Supplementary Figure 1, liver and kidney).

Data set [7] addresses T2, pepsin from porcine gastric mucosa (Sus scrofa, UniProt P00791).
T2 construct: pepsin from porcine gastric mucosa (Sigma-Aldrich, Deisenhofen, Germany); purchased Sigma-Aldrich, Deisenhofen, Germany; host or cells: porcine gastric mucosa
Kind of data set: Peptide stability in presence of pepsin at pH 2 (SDS-PAGE). Type of data set: in vitro ADME. The following applies: pepsin in buffer pH 2, peptide:pepsin 10:1 weight ratio, 37°C, 1, 2 and 7 days. As for the experimental part:
as §1, with “Therefore peptide samples were incubated in presence of 1:1 weight ratios (10:1 in presence of pepsin) with the mentioned components or in presence of buffer (pH 2 or 10) for 1 day, 6 days and 7 days at 37°C.” left out

Data set [8] has as its system normal human dermal fibroblasts NHDF. Briefly: MTS cell viability assay, NHDF. Type of data set: cell-based. The following applies: 24 h, at least three experiments. The source says:
The human malignant melanoma cell line A375 was purchased from ATCC (American Type Culture Collection, Manassas, Virginia, US) and cultured in Dulbecco's Modified Eagle Medium with GlutaMAX™ (DMEM, Gibco®, Thermo Fisher Scientific, USA) with addition of 10% FBS (Gibco®). Melanoma cell lines from primary (SBcl-2) and metastatic (WM164) lesions (kindly provided by Dr. Meenhard Herlyn, the Wistar Institute, Philadelphia, PA) and newly established primary cells MUG-Mel1 (manuscript Rinner et al., in preparation) were maintained in RPMI 1640 medium with GlutaMAX™ (Gibco®, Thermo Fisher Scientific, USA) supplemented with 2% FBS (fetal bovine serum; Gibco®). Normal human dermal fibroblasts NHDF, used as healthy control cells, purchased from PromoCell GmbH were cultured in fibroblast growth medium 2 (PromoCell GmbH). All cells were kept in a 5% CO2 atmosphere at 37°C. […]
MTS viability assay-spectroscopy—Cell proliferation was measured by using CellTiter 96® Aqueous One Solution Cell Proliferation assay (Promega). […] The quantity of the formazan product as measured by the amount of 490 nm absorbance is directly proportional to the number of living cells in culture. Data are calculated as a percentage of the control (untreated) samples and represent the average of three wells in one experiment which was repeated three times per cell line.

The subject of a further data set is malignant melanoma. The following applies: cited from earlier work; for response rates: malignant melanoma patients, ref [26], [27]. An excerpt: Though, the specific target PS has been described to be exposed by numerous cancer types, we decided to focus on treatment of a cancer type with poor prognosis and limited therapy options, like malignant melanoma. […] In 1960s the risk to develop malignant melanoma was 1:600, whereas today it is 1:75 to 1:100 [23]. Further it exerts high tendency to metastasize and is mainly chemo-resistant. Thus the long-standing applied treatment with the methylating agent dacarbazine or its oral analogue temozolomide only yie ...

Setting [9] is: 3 mice, 9 s.c. doses, total 0.68 mg per mouse over 3 weeks.
The mark [10] stands for this setting: vemurafenib compared to dacarbazine, ref [30].

Read-outs that look alike come from different tables or passages of the source. Residues, ends and D or L forms follow the SMILES beside them.

T1 sequence (P02769 25-607): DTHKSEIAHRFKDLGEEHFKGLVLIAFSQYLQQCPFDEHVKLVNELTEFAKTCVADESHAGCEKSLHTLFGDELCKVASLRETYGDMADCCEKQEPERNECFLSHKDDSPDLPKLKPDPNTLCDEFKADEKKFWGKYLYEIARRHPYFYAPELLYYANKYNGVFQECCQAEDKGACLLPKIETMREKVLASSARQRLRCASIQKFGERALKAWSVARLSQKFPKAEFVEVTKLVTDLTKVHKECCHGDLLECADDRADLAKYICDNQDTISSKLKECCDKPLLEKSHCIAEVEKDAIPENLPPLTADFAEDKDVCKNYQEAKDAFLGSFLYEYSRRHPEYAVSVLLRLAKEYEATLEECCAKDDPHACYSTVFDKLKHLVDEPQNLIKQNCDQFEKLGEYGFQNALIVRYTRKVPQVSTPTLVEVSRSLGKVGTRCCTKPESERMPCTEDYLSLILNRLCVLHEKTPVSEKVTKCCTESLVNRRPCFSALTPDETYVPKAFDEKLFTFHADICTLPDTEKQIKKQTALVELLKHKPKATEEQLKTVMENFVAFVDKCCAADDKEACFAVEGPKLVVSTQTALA
T2 sequence (P00791 60-385): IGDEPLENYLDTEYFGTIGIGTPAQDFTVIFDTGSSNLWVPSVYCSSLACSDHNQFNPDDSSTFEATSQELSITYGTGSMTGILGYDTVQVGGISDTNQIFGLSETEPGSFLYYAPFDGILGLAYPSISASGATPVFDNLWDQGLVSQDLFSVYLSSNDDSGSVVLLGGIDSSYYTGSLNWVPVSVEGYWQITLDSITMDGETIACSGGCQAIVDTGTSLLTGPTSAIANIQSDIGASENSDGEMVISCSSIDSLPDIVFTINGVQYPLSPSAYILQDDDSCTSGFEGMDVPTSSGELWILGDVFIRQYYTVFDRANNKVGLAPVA

`CC[C@H](C)[C@H](NC(=O)[C@H](CCCNC(=N)N)NC(=O)[C@@H](NC(=O)[C@H](CCCNC(=N)N)NC(=O)[C@H](CCCNC(=N)N)NC(=O)[C@@H]1CCCN1C(=O)[C@H](CCCNC(=N)N)NC(=O)[C@H](CCCNC(=N)N)NC(=O)[C@@H](NC(=O)[C@H](CCCNC(=N)N)NC(=O)[C@@H](NC(=O)[C@H](CCCNC(=N)N)NC(=O)[C@H](Cc1c[nH]c2ccccc12)NC(=O)[C@@H]1CCCN1)[C@@H](C)CC)[C@@H](C)CC)[C@@H](C)CC)C(=O)N[C@@H](CCCNC(=N)N)C(=O)N[C@@H](Cc1c[nH]c2ccccc12)C(=O)N1CCC[C@H]1C(N)=O` [R-DIM-P-LF11-334] (H-PWRIRIRRPRRIRIRWP-NH2): the “degradation of peptide by BSA” value in [1] was “no degrading effect”. In addition, the “local reaction at tumor after intratumoral injection” value in data set [2] is given as “in some cases a wound developed”. In data set [3] (+P), the Bas is 0.68%, the EVB-CV was 19.44%, the EVB-SD stood at 35.95 fL and the MERY worked out at 0.34%. Also, in data set [3] (+P), the MTHR stood at 8.13%, the Medn was determined as 4.14 fL, the Mod was 3.05 fL and the “Other (leukocytes)” value is given as 2.30%. Moreover, in data set [3] (+P), the TKT worked out at 0.43%, the μERY came out at 16.00% and the μTHR is 16.54%. This compound had a Mon in data set [3] (+P, normal range 1-5) of 4.46%. The compound also showed an MPV in data set [3] (+P, normal range 3-8) of 5.91 fL. In data set [3] (+P, normal range 6-10), this compound came in with a TVB of 10.10. In addition, in [3] (+P, normal range 6-11), the “Erythrocytes ERY” value is 8.53 10^6/μl. Further, the MCH in data set [3] (+P, normal range 13-22) amounted to 16.5 pg. The Hb in data set [3] (+P, normal range 14-18) amounted to 14.06 g/dL. The compound further had an MCHC in data set [3] (+P, normal range 24-40) of 32.85 g/dL. Also, the Hct in data set [3] (+P, normal range 35-45) turned out to be 42.81%. This compound also showed an MCV in data set [3] (+P, normal range 35-50) of 50.18 fL. For the same compound, the Lym in data set [3] (+P, normal range 70-81, marked ↑) was 82.28%. The “Thrombocytes THR” value in [3] (+P, normal range 100-600, marked ↑) is 705.00 10^3/μl. This compound also returned an Eos in data set [3] (+P, normal range <10) of 1.33%. Besides, the “Leukocytes LEU” value in [3] (peptide treated xenograft mice (+P), normal range 4-10) is reported as 6.13 10^3/μl. Besides, in data set [4], the “incubation time in FBS before amount of peptide is reduced” value is “more than 1 day”, the “peptide remaining in FBS after 6 days” value is reported as “no peptide was detectable” and the “period of stability / complete activity in presence of FBS (blood components)” value was determined as 24 h. The “fraction of peptide left in FBS after 2 days” value in [4] (data not shown) is “about 1/3”. Further, in [5], the “binding of the peptide to BSA” value was “approximately 75%”. Further, in [6] (setting [9]), the “inflammation after subcutaneous injection” value was “No inflammation occurred”; the “organs (skin at injection site, liver, kidney, spleen)” value is given as “unsuspicious”; the weight gain entry is “normal”. Moreover, the “effect in liver and kidney (H&E sections)” value in data set [6] (s.c. treatment, 9 doses, Supplementary Figure 1) was “No effect”. For the same compound, the “cleavage in presence of pepsin” value in data set [7] is “no visible cleavage”. Further, the “LC50 MTS” value in data set [8] is greater than 90 µM.
For the compound `CN(C)/N=N/c1[nH]cnc1C(N)=O` [dacarbazine], the response rates result in the data set on malignant melanoma is given as “about 15%”. Further, the “percentage of 5 years survival, solely dacarbazine” value in the data set with malignant melanoma (ref [29]) is listed as 8%. Also, in the data set on malignant melanoma (setting [10]), the median survival was 9.7 months.
`Cn1nnc2c(C(N)=O)ncn2c1=O` [temozolomide]: the response rates result in the data set on malignant melanoma is reported as “about 15%”.
With `CCCS(=O)(=O)Nc1ccc(F)c(C(=O)c2c[nH]c3ncc(-c4ccc(Cl)cc4)cc23)c1F` [vemurafenib], the median survival with malignant melanoma (setting [10]) is listed as 13.6 months.
On to “ipilimumab: immunotherapy approved by the FDA in 2011, blocks the T-cell inhibition of CTLA-4”, for which the median survival in the data set with malignant melanoma (melanoma patients, ref [28]) is listed as 12.7 months. The “percentage of 5 years survival, in combination with dacarbazine” value in the data set on malignant melanoma (patients treated with ipilimumab in combination with dacarbazine, ref [29]) is given as 18%.
